The subject of this test is chromosome alignment, centromeres, and spindle body. Nature of the test: Fluorescence microscopy of chromosome alignment, centromeres and spindle body. The conditions noted are these: cells treated for several hours, FIGS. 8A-8B. It counts as cell-based. From the text:
FIGS. 8A-8B: Color images showing effects of compound 25 on chromosome alignment, centromeres, and spindle body. Microtubules that make up the mitotic spindle are detected with an antibody linked to a green fluorophore, which was detected with a fluorescence microscope. Centromeres were detected with a far red fluorophore (they are pseudocolored pink). DNA was detected with Hoechst DNA stain, which is blue.
In normal cells (FIG. 8A, upper two panels), chromosomes line up between the spindle poles at metaphase. In cells treated with compound 25 for several hours (FIG. 8A, lower two panels), cells still enter mitosis but centromeres are found all over the cell (not just in the middle between the poles of the spindle). […] However, when ZM is combined with compound 25, what was observed was a very dramatic disruption of spindle architecture. […] Without wishing to be bound by theory, it is believed that both Aurora B and the targets of compound 25 work in parallel to control tubulin function. When either one is inhibited alone, there is no effect since the other pathway compensates. When both are inhibited, the defect is detected.

As to `COc1cc2c(Nc3ccc(NC(=O)c4ccccc4)cc3)ncnc2cc1OCCCN1CCOCC1` [ZM447439, reference compound], the “Chromosome alignment / centromere position” value is given as “Many misaligned chromosomes”.

Values taken from patent US11098038B2, “Imidazole-based anticancer agents and derivatives thereof, and methods of making and using same” (The University of Toledo, priority 2017, dated 2021).
